Assay results as given in the NIST ThermoML archive (doi:10.1021/je060148j).
± gives the expanded uncertainty stated by the source.

Details: Liquid, Closed cell (Static) method

SMILES: COC [dimethyl ether]
- vapor or sublimation pressure (219.15 K): 22.3 ± 2 kPa
- vapor or sublimation pressure (221.13 K): 25.2 ± 2 kPa
- vapor or sublimation pressure (223.11 K): 28.3 ± 2 kPa
- vapor or sublimation pressure (224.88 K): 31.5 ± 2 kPa
- vapor or sublimation pressure (226.88 K): 35.4 ± 2 kPa
- vapor or sublimation pressure (228.85 K): 39.5 ± 2 kPa
- vapor or sublimation pressure (230.86 K): 43.9 ± 2 kPa
- vapor or sublimation pressure (232.86 K): 48.7 ± 2 kPa
- vapor or sublimation pressure (234.85 K): 54.1 ± 2 kPa
- vapor or sublimation pressure (236.85 K): 59.8 ± 2 kPa
- vapor or sublimation pressure (239.14 K): 66.3 ± 2 kPa
- vapor or sublimation pressure (241.14 K): 73.2 ± 2 kPa
- vapor or sublimation pressure (244.14 K): 84 ± 2 kPa
- vapor or sublimation pressure (247.13 K): 96.1 ± 2 kPa
- vapor or sublimation pressure (249.13 K): 104.9 ± 2 kPa
- vapor or sublimation pressure (251.14 K): 114.3 ± 2 kPa
- vapor or sublimation pressure (255.13 K): 135.1 ± 2 kPa
- vapor or sublimation pressure (257.12 K): 146.6 ± 2 kPa
- vapor or sublimation pressure (259.14 K): 159 ± 2 kPa
- vapor or sublimation pressure (261.13 K): 171.8 ± 2 kPa
- vapor or sublimation pressure (263.13 K): 185.6 ± 2 kPa
- vapor or sublimation pressure (265.13 K): 199.8 ± 2 kPa
- vapor or sublimation pressure (267.13 K): 215.5 ± 2.1 kPa
- vapor or sublimation pressure (269.13 K): 231.8 ± 2.1 kPa
- vapor or sublimation pressure (271.13 K): 248.9 ± 2.1 kPa
- vapor or sublimation pressure (273.13 K): 266.8 ± 2.1 kPa
- vapor or sublimation pressure (275.04 K): 285.1 ± 2.1 kPa
- vapor or sublimation pressure (277.02 K): 305 ± 2.1 kPa
- vapor or sublimation pressure (279.02 K): 326.4 ± 2.1 kPa
- vapor or sublimation pressure (281.02 K): 348.8 ± 2.1 kPa
- vapor or sublimation pressure (283.02 K): 372.3 ± 2.1 kPa
- vapor or sublimation pressure (285.01 K): 397 ± 2.1 kPa
- vapor or sublimation pressure (287 K): 422.8 ± 2.2 kPa
- vapor or sublimation pressure (288.99 K): 449.8 ± 2.2 kPa
- vapor or sublimation pressure (290.99 K): 478.4 ± 2.2 kPa
- vapor or sublimation pressure (293.08 K): 508.9 ± 2.2 kPa
- vapor or sublimation pressure (295.07 K): 540 ± 2.2 kPa
- vapor or sublimation pressure (297.07 K): 573 ± 2.3 kPa
- vapor or sublimation pressure (299.08 K): 606.9 ± 2.3 kPa
- vapor or sublimation pressure (301.11 K): 643.1 ± 2.3 kPa
- vapor or sublimation pressure (303.08 K): 680.2 ± 2.4 kPa
- vapor or sublimation pressure (305.07 K): 718.4 ± 2.4 kPa
- vapor or sublimation pressure (307.07 K): 758.8 ± 2.4 kPa
- vapor or sublimation pressure (309.06 K): 800.7 ± 2.5 kPa
- vapor or sublimation pressure (311.07 K): 844.2 ± 2.5 kPa
- vapor or sublimation pressure (313.06 K): 889.5 ± 2.5 kPa
- vapor or sublimation pressure (315.06 K): 936.6 ± 2.6 kPa
- vapor or sublimation pressure (317.04 K): 985.3 ± 2.6 kPa
- vapor or sublimation pressure (319.03 K): 1036 ± 2.7 kPa
- vapor or sublimation pressure (321.03 K): 1088.7 ± 2.8 kPa
- vapor or sublimation pressure (323.02 K): 1143.3 ± 2.8 kPa
- vapor or sublimation pressure (325.02 K): 1200.6 ± 2.9 kPa
- vapor or sublimation pressure (327.13 K): 1262.3 ± 2.9 kPa
- vapor or sublimation pressure (329.02 K): 1319.9 ± 3 kPa
- vapor or sublimation pressure (331.11 K): 1385.3 ± 3.1 kPa
- vapor or sublimation pressure (333.11 K): 1450.6 ± 3.2 kPa
- vapor or sublimation pressure (335.11 K): 1518.8 ± 3.3 kPa
- vapor or sublimation pressure (337.1 K): 1588.4 ± 3.3 kPa
- vapor or sublimation pressure (339.1 K): 1660.3 ± 3.4 kPa
- vapor or sublimation pressure (341.08 K): 1733.3 ± 3.5 kPa
- vapor or sublimation pressure (343.09 K): 1811.3 ± 3.6 kPa
- vapor or sublimation pressure (345.09 K): 1891.2 ± 3.7 kPa
- vapor or sublimation pressure (347.08 K): 1972.8 ± 3.8 kPa
- vapor or sublimation pressure (349.08 K): 2057.4 ± 4 kPa
- vapor or sublimation pressure (351.07 K): 2144.3 ± 4.1 kPa
- vapor or sublimation pressure (353.05 K): 2232.7 ± 4.2 kPa
- vapor or sublimation pressure (355.05 K): 2326 ± 4.3 kPa
- vapor or sublimation pressure (357.05 K): 2421.9 ± 4.4 kPa
- vapor or sublimation pressure (359.05 K): 2520.3 ± 4.6 kPa
- vapor or sublimation pressure (361.04 K): 2621.5 ± 4.7 kPa
